In patent US20250108038A1 (priority 2023, published 2025):
“And” between values parts separate entries of the source, which are not always exact repeats. Equal values may be shown once. Where a name gives a salt, the structure may show the parent alone.

Test system: Long Evans rats
Assay: Behavioral satiety sequence (BSS)
Type: in vivo, Long Evans rat
Source text: The Behavioural Satiety Sequence (BSS) is a technique used to evaluate physiological satiety. It is based on the expression of a sequence of behaviors including eating, grooming, locomotor activity, followed by resting, which are typically observed in rodents post-ingestion (Halford et al, 1998, Pharmacology Biochemistry and Behaviour. 61(2): 159-168). The BSS is a widely used model for determining the effects of novel pharmaceuticals on food intake and measures of satiety in rodents (Oliveira et al, 2011, Revista de Nutrição. 24(4) 619-628), and to discriminate the cause of reduced food intake following pharmacological manipulation. For example, treatments that may reduce food intake by non-specific mechanisms, such as immobility, malaise, and taste adulteration, will disrupt this sequence (Halford et al, 1998, Pharmacology Biochemistry and Behaviour. 61(2): 159-168).
Specifically, 12 male Long-Evans rats were food-deprived for 22 h with a 2 h feeding period each day. Rats were trained to consume daily food during the 2 h period over 25 days. The testing phase was initiated once the rats consistently consumed 16-18 g of food per day with ≤10% variance in amount of feed consumed. Feeding took place in designated individual boxes in a quiet room separate from the housing room. Continuous remote monitoring via video camera during feeding was used to assess the BSS. Food consumption was measured by weighing the total available food before and after the 2 h feeding window, correcting for spillage. Lorcaserin (1 mg/kg) was included as a reference control (Higgins et al, 2011, Neuropsychopharmacology. 37(5): 1177-1191). Subjects were tested using a repeated-measures, Latin square design with 2-3 days wash-out between treatment cycles.
On scheduled test days, animals were monitored remotely via video camera during the feeding access period. The occurrence of four mutually exclusive behaviors (eating/drinking, grooming, active, rest) were individually scored. Over the 2 h feeding period, behaviors were assessed every 30 seconds. Scores were compiled into 23 5 min timebins (timebin 24 was removed due to early removal of animals) and the frequency of each behavior within each timebin was calculated to determine a temporal frequency of each measure (Rodgers et al, 2010, Pharmacology Biochemistry and Behaviour. 97: 3-14). Percentage time was plotted for each behavioral sequence in each timebin to compare between treatment groups (Higgins et al, 2011, Neuropsychopharmacology. 37(5): 1177-1191).

[1] = lorcaserin 1 mg/kg, AVG of animals LT-1 to LT-12
[2] = lorcaserin 1 mg/kg, raw score per animal (LT-1 to LT-12), hydrochloride

C[C@H]1CNCCc2ccc(Cl)cc21 [lorcaserin, Lorcaserin hydrochloride, reference compound]
BSS scoring R (resting), Time Bin 6 (25-30 TOTAL) (Lorcaserin 1 mg/kg, raw data per animal LT-1 to LT-12, 0-0.5 hours, hydrochloride): 1 (3×) and 0 (8×) and 3
BSS scoring A (active), Time Bin 19 (90-95 TOTAL), AVG [1]: 0.10
BSS scoring A (active), Time Bin 20 (95-100 TOTAL), AVG [1]: 0.08
BSS scoring A (active), Time Bin 21 (100-105 TOTAL), AVG [1]: 0.06
BSS scoring A (active), Time Bin 22 (105-110 TOTAL), AVG [1]: 0.02
BSS scoring A (active), Time Bin 23 (110-115 TOTAL), AVG [1]: 0.06
BSS scoring A (active), Time Bin 24 (115-120 TOTAL), AVG [1]: 0.10
BSS scoring E (eating/drinking), Time Bin 19 (90-95 TOTAL), AVG [1]: 0.77
BSS scoring E (eating/drinking), Time Bin 20 (95-100 TOTAL), AVG [1]: 0.75
BSS scoring E (eating/drinking), Time Bin 21 (100-105 TOTAL), AVG [1]: 0.84
BSS scoring E (eating/drinking), Time Bin 22 (105-110 TOTAL), AVG [1]: 0.84
BSS scoring E (eating/drinking), Time Bin 23 (110-115 TOTAL), AVG [1]: 0.75
BSS scoring E (eating/drinking), Time Bin 24 (115-120 TOTAL), AVG [1]: 0.58
BSS scoring G (grooming), Time Bin 19 (90-95 TOTAL), AVG [1]: 0.04
BSS scoring G (grooming), Time Bin 20 (95-100 TOTAL), AVG [1]: 0.05
BSS scoring G (grooming), Time Bin 21 (100-105 TOTAL), AVG [1]: 0.05
BSS scoring G (grooming), Time Bin 22 (105-110 TOTAL), AVG [1]: 0.01
BSS scoring G (grooming), Time Bin 23 (110-115 TOTAL), AVG [1]: 0.08
BSS scoring G (grooming), Time Bin 24 (115-120 TOTAL), AVG [1]: 0.07
BSS scoring R (resting), Time Bin 19 (90-95 TOTAL), AVG [1]: 0.09
BSS scoring R (resting), Time Bin 20 (95-100 TOTAL), AVG [1]: 0.12
BSS scoring R (resting), Time Bin 21 (100-105 TOTAL), AVG [1]: 0.05
BSS scoring R (resting), Time Bin 22 (105-110 TOTAL), AVG [1]: 0.13
BSS scoring R (resting), Time Bin 23 (110-115 TOTAL), AVG [1]: 0.11
BSS scoring R (resting), Time Bin 24 (115-120 TOTAL), AVG [1]: 0.08
BSS scoring A (active), Time Bin 19 (90-95 TOTAL) [2]: 2 (3×) and 0 (7×) and 3 (2×)
BSS scoring A (active), Time Bin 20 (95-100 TOTAL) [2]: 0 (7×) and 1 (2×) and 4 and 2 (2×)
BSS scoring A (active), Time Bin 21 (100-105 TOTAL) [2]: 0 (7×) and 1 (4×) and 3
BSS scoring A (active), Time Bin 22 (105-110 TOTAL) [2]: 0 (11×) and 2
BSS scoring A (active), Time Bin 23 (110-115 TOTAL) [2]: 0 (6×) and 1 (5×) and 2
BSS scoring A (active), Time Bin 24 (115-120 TOTAL) [2]: 0 (8×) and 6 and 1 and 3 and 2
BSS scoring E (eating/drinking), Time Bin 19 (90-95 TOTAL) [2]: 8 and 9 (3×) and 5 (2×) and 10 (2×) and 7 (3×) and 6
BSS scoring E (eating/drinking), Time Bin 20 (95-100 TOTAL) [2]: 9 (5×) and 8 and 0 and 10 (2×) and 4 and 6 and 7
BSS scoring E (eating/drinking), Time Bin 21 (100-105 TOTAL) [2]: 8 (4×) and 9 (2×) and 7 (3×) and 10 (3×)
BSS scoring E (eating/drinking), Time Bin 22 (105-110 TOTAL) [2]: 7 and 8 (4×) and 9 (3×) and 10 (3×) and 5
BSS scoring E (eating/drinking), Time Bin 23 (110-115 TOTAL) [2]: 6 (5×) and 8 (3×) and 9 (4×)
BSS scoring E (eating/drinking), Time Bin 24 (115-120 TOTAL) [2]: 10 (2×) and 9 and 0 (2×) and 7 (2×) and 4 (2×) and 5 and 6 and 8
BSS scoring G (grooming), Time Bin 19 (90-95 TOTAL) [2]: 0 (9×) and 3 and 1 (2×)
BSS scoring G (grooming), Time Bin 20 (95-100 TOTAL) [2]: 0 (7×) and 1 (4×) and 2
BSS scoring G (grooming), Time Bin 21 (100-105 TOTAL) [2]: 0 (7×) and 1 (4×) and 2
BSS scoring G (grooming), Time Bin 22 (105-110 TOTAL) [2]: 0 (11×) and 1
BSS scoring G (grooming), Time Bin 23 (110-115 TOTAL) [2]: 4 and 2 (2×) and 0 (7×) and 1 (2×)
BSS scoring G (grooming), Time Bin 24 (115-120 TOTAL) [2]: 0 (7×) and 2 (3×) and 1 (2×)
BSS scoring R (resting), Time Bin 19 (90-95 TOTAL) [2]: 0 (6×) and 1 (3×) and 3 (2×) and 2
BSS scoring R (resting), Time Bin 20 (95-100 TOTAL) [2]: 1 (5×) and 0 (5×) and 7 and 2
BSS scoring R (resting), Time Bin 21 (100-105 TOTAL) [2]: 2 and 0 (9×) and 3 and 1
BSS scoring R (resting), Time Bin 22 (105-110 TOTAL) [2]: 3 (2×) and 2 (4×) and 0 (4×) and 1 (2×)
BSS scoring R (resting), Time Bin 23 (110-115 TOTAL) [2]: 0 (3×) and 1 (6×) and 2 (2×) and 3
BSS scoring R (resting), Time Bin 24 (115-120 TOTAL) [2]: 0 (7×) and 1 (2×) and 4 and 2 (2×)
